Source: US20240002344A1, “COMPOUNDS, COMPOSITIONS AND METHODS FOR HISTONE LYSINE DEMETHYLASE INHIBITION” (FibroGen, Inc., priority 2020, published 2024)
pIC50: −log10 of the molar value.

How the values were obtained:
[1] = biological target: T1, recombinant human KDM5B (Homo sapiens, UniProt Q9UGL1); experiment: 14CO2 capture enzymatic assay (decarboxylation of [1-14C] αKG), KDM5B; type: biochemical; details: 10 μM [1-14C] αKG, 90 μM non-labeled αKG, 50 μM peptide substrate, 37° C., 1 hour, final 1% DMSO
T1 sequence (Q9UGL1 374-755 limits assumed): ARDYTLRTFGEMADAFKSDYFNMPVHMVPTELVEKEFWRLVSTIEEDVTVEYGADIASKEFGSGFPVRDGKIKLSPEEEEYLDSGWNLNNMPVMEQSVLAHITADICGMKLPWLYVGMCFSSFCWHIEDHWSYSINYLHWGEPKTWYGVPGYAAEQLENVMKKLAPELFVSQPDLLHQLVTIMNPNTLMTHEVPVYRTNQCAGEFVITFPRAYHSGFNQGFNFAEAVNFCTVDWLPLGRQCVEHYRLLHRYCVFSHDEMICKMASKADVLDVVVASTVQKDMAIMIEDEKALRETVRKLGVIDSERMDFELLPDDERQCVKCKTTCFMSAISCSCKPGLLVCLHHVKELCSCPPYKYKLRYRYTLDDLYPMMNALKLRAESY
Description: (§1) Enzymatic activity was determined based on the capture of ^14CO2 released by the decarboxylation of [1-^14C] αKG (Zhang et al., Anal. Biochem., 1998, vol. 271, pp. 137-142). [1-^14C]alphaketoglutarate (αKG) was from Perkin-Elmer, H3K4me3 and H3K9me3 peptides were from Mimotopes. All other reagents were from Sigma. Reaction mixtures included the following components: Fe(SO4), [1-^14C] αKG, non-labeled αKG, ascorbate, peptide-substrate (H3K4me3: H-ARTK(me3)QTARKSTGGKAPRKQLA-OH. H3K9me3: H-ARTKQTARK(me3)STGGKAPRKQLA-OH), NaCl, Tween-20 and catalase in 25 mM HEPES buffer, pH 7.4. The enzymatic reactions were initiated by addition of recombinant human KDM5B or KDM4A enzyme (truncated enzyme produced in house by method and using sequence disclosed in Ng et al, Nature 448:87-91, 2007). The reactions were performed in 96-well microtiter plates (20 μL total assay volume) (Greiner #650201). ^14CO2 was captured on a glass fiber filter paper (Cat. No. IH-201-A, Inotech Biosystems International) soaked with saturated Ba(OH)2 that was laid on top of the 96-well plate. A microtiter plate sealer film (Thermal Seal cat #T7961100) was applied to the filter paper. The plate and filter paper were sandwiched between two custom made aluminum plates (Advanced Component Manufacturing, Burlingame, CA) and transferred to a 37° C. oven and allowed to incubate for 1 hour. After incubation, the filter paper was dried in a 103° C. oven for 40-60 minutes. To determine percent turnover, aliquots of the reaction mixture were spotted onto the filter paper and the filter paper was dried again. The dry filter paper was exposed to a storage phosphor screen for 24-72 hours and the images recorded using a Typhoon FLA 7000 Imager (Amersham Biosciences, Piscataway, NJ). Integrated spot intensities corresponding to control reactions lacking the enzyme were subtracted from integration results for enzyme containing reactions and data were converted to enzyme dependent percent ^14CO2 release. All enzymatic reactions were run in duplicates.
(§2) For IC50 determination, a 3-fold dilution series of compound was prepared and added to the reaction mixture (final 1% DMSO, v/v) prior to enzyme addition. The final reagent concentrations were: 10 μM Fe(SO4), 10 μM [1-^14C] αKG, 90 μM non-labeled αKG, 2 mM ascorbate, 50 μM peptide substrate, 75 mM NaCl, 0.01% Tween-20 and ˜2 units/μL catalase. IC50s were determined by non-linear fitting using Grafit version 7.0.

[2] = biological target: T2, recombinant human KDM4A (Homo sapiens, UniProt O75164); experiment: 14CO2 capture enzymatic assay (decarboxylation of [1-14C] αKG), KDM4A; type: biochemical; details: 10 μM [1-14C] αKG, 90 μM non-labeled αKG, 50 μM peptide substrate, 37° C., 1 hour, final 1% DMSO
T2 construct: made in house
T2 sequence (O75164 1-359 limits assumed): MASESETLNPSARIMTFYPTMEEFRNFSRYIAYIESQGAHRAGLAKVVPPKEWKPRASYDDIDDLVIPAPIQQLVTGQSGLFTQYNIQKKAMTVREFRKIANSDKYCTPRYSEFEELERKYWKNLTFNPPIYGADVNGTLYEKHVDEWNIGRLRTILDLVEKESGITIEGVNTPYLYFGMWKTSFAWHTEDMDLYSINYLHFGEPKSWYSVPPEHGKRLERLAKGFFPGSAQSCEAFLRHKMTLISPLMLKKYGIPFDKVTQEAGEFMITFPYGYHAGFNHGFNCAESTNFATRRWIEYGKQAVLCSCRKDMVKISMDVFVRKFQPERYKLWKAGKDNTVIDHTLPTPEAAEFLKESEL
Description: as §1, §2

## O=C(O)CCC(=O)c1nc(Br)cc(Br)c1O [Example 1, 4-(4,6-Dibromo-3-hydroxy-pyridin-2-yl)-4-oxo-butyric acid]
[1]
  pIC50: 6.35
[2]
  pIC50: 4.44

## N#Cc1cc(Br)c(O)c(C(=O)CCC(=O)O)n1 [Example 2, 4-(4-Bromo-6-cyano-3-hydroxy-pyridin-2-yl)-4-oxo-butyric acid]
[1]
  pIC50: 6.51
[2]
  pIC50: 4.72

## N#Cc1cc(C#N)c(O)c(C(=O)CCC(=O)O)n1 [Example 3, 4-(4,6-Dicyano-3-hydroxy-pyridin-2-yl)-4-oxo-butyric acid]
[1]
  pIC50: 6.96
[2]
  pIC50: 4.80

## O=C(O)CCC(=O)c1nc(C(F)(F)F)cc(C(F)(F)F)c1O [Example 4, 4-(3-Hydroxy-4,6-bis-trifluoromethyl-pyridin-2-yl)-4-oxo-butyric acid]
[1]
  pIC50: 6.64
[2]
  pIC50: 5.46

## CSc1cc(C#N)c(O)c(C(=O)CCC(=O)O)n1 [Example 5, 4-(4-Cyano-3-hydroxy-6-methylsulfanyl-pyridin-2-yl)-4-oxo-butyric acid]
[1]
  pIC50: 6.62
[2]
  pIC50: 4.15

## Cc1cc(C#N)c(O)c(C(=O)CCC(=O)O)n1 [Example 6, 4-(4-Cyano-3-hydroxy-6-methyl-pyridin-2-yl)-4-oxo-butyric acid]
[1]
  pIC50: 6.55
[2]
  pIC50: < 4.40

## N#Cc1cc(-c2ccccc2)nc(C(=O)CCC(=O)O)c1O [Example 7, 4-(4-Cyano-3-hydroxy-6-phenyl-pyridin-2-yl)-4-oxo-butyric acid]
[1]
  pIC50: 6.68
[2]
  pIC50: < 4.40

## N#Cc1cc(C(F)(F)F)c(O)c(C(=O)CCC(=O)O)n1 [Example 8, 4-(6-Cyano-3-hydroxy-4-trifluoromethyl-pyridin-2-yl)-4-oxo-butyric acid]
[1]
  pIC50: 6.57
[2]
  pIC50: 4.89

## COc1ccc(-c2cc(C#N)c(O)c(C(=O)CCC(=O)O)n2)cc1 [Example 9, 4-[4-Cyano-3-hydroxy-6-(4-methoxy-phenyl)-pyridin-2-yl]-4-oxo-butyric acid]
[1]
  pIC50: 6.80
[2]
  pIC50: < 4.40

## N#Cc1cc(Cc2ccccc2)nc(C(=O)CCC(=O)O)c1O [Example 10, 4-(6-Benzyl-4-cyano-3-hydroxy-pyridin-2-yl)-4-oxo-butyric acid]
[1]
  pIC50: 6.80
[2]
  pIC50: < 4.40

## N#Cc1cc(-c2ccccn2)nc(C(=O)CCC(=O)O)c1O [Example 11, 4-(4-Cyano-5-hydroxy-[2,2′]bipyridinyl-6-yl)-4-oxo-butyric acid]
[1]
  pIC50: 6.23
[2]
  pIC50: < 4.40

## N#Cc1cc(-c2ccncc2)nc(C(=O)CCC(=O)O)c1O [Example 12, 4-(4-Cyano-5-hydroxy-[2,4′]bipyridinyl-6-yl)-4-oxo-butyric acid]
[1]
  pIC50: 6.89
[2]
  pIC50: 4.80

## N#Cc1cc(-c2cccnc2)nc(C(=O)CCC(=O)O)c1O [Example 13, 4-(4-Cyano-5-hydroxy-[2,3′]bipyridinyl-6-yl)-4-oxo-butyric acid]
[1]
  pIC50: 6.85
[2]
  pIC50: 4.66

## COc1ccccc1-c1cc(C#N)c(O)c(C(=O)CCC(=O)O)n1 [Example 14, 4-[4-Cyano-3-hydroxy-6-(2-methoxy-phenyl)-pyridin-2-yl]-4-oxo-butyric acid]
[1]
  pIC50: 6.33
[2]
  pIC50: < 4.40

## N#Cc1cc(CCc2ccccc2)nc(C(=O)CCC(=O)O)c1O [Example 15, 4-(4-Cyano-3-hydroxy-6-phenethyl-pyridin-2-yl)-4-oxo-butyric acid]
[1]
  pIC50: 6.41
[2]
  pIC50: < 4.40

## Cn1cc(-c2cc(C#N)c(O)c(C(=O)CCC(=O)O)n2)cn1 [Example 16, 4-[4-Cyano-3-hydroxy-6-(1-methyl-1H-pyrazol-4-yl)-pyridin-2-yl]-4-oxo-butyric acid]
[1]
  pIC50: 6.68
[2]
  pIC50: < 4.40

## N#Cc1cc(Cc2ccc(Cl)cc2)nc(C(=O)CCC(=O)O)c1O [Example 17, 4-[6-(4-Chloro-benzyl)-4-cyano-3-hydroxy-pyridin-2-yl]-4-oxo-butyric acid]
[1]
  pIC50: 6.72
[2]
  pIC50: < 4.40

## N#Cc1cc(Cc2cccc(Cl)c2)nc(C(=O)CCC(=O)O)c1O [Example 18, 4-[6-(3-Chloro-benzyl)-4-cyano-3-hydroxy-pyridin-2-yl]-4-oxo-butyric acid]
[1]
  pIC50: 7.00
[2]
  pIC50: < 4.40

## N#Cc1cc(-c2ccc(F)cc2)nc(C(=O)CCC(=O)O)c1O [Example 19, 4-[4-Cyano-6-(4-fluoro-phenyl)-3-hydroxy-pyridin-2-yl]-4-oxo-butyric acid]
[1]
  pIC50: 6.64
[2]
  pIC50: < 4.40

## N#Cc1cc(-c2cccc(F)c2)nc(C(=O)CCC(=O)O)c1O [Example 20, 4-[4-Cyano-6-(3-fluoro-phenyl)-3-hydroxy-pyridin-2-yl]-4-oxo-butyric acid]
[1]
  pIC50: 6.77
[2]
  pIC50: < 4.40

## N#Cc1cc(Cc2ccccc2Cl)nc(C(=O)CCC(=O)O)c1O [Example 21, 4-[6-(2-Chloro-benzyl)-4-cyano-3-hydroxy-pyridin-2-yl]-4-oxo-butyric acid]
[1]
  pIC50: 6.68
[2]
  pIC50: 4.54

## N#Cc1cc(-c2ccc(Cl)cc2)nc(C(=O)CCC(=O)O)c1O [Example 22, 4-[6-(4-Chloro-phenyl)-4-cyano-3-hydroxy-pyridin-2-yl]-4-oxo-butyric acid]
[1]
  pIC50: 6.74
[2]
  pIC50: ≤ 4.40

## N#Cc1cc(-c2cccc(Cl)c2)nc(C(=O)CCC(=O)O)c1O [Example 23, 4-[6-(3-Chloro-phenyl)-4-cyano-3-hydroxy-pyridin-2-yl]-4-oxo-butyric acid]
[1]
  pIC50: 6.82
[2]
  pIC50: ≤ 4.40

## N#Cc1cc(Cc2ccc3ccccc3c2)nc(C(=O)CCC(=O)O)c1O [Example 24, 4-(4-Cyano-3-hydroxy-6-naphthalen-2-ylmethyl-pyridin-2-yl)-4-oxo-butyric acid]
[1]
  pIC50: 6.28
[2]
  pIC50: < 4.40

## N#Cc1cc(C2CCCCC2)nc(C(=O)CCC(=O)O)c1O [Example 25, 4-(4-Cyano-6-cyclohexyl-3-hydroxy-pyridin-2-yl)-4-oxo-butyric acid]
[1]
  pIC50: 6.48
[2]
  pIC50: < 4.40

## N#Cc1cc(-c2ccc(C(F)(F)F)cc2)nc(C(=O)CCC(=O)O)c1O [Example 26, 4-[4-Cyano-3-hydroxy-6-(4-trifluoromethyl-phenyl)-pyridin-2-yl]-4-oxo-butyric acid]
[1]
  pIC50: 6.70
[2]
  pIC50: < 4.40

## COc1ccc(Cc2cc(C#N)c(O)c(C(=O)CCC(=O)O)n2)cc1 [Example 27, 4-[4-Cyano-3-hydroxy-6-(4-methoxy-benzyl)-pyridin-2-yl]-4-oxo-butyric acid]
[1]
  pIC50: 6.26
[2]
  pIC50: < 4.40

## N#Cc1cc(-c2cccc(C(F)(F)F)c2)nc(C(=O)CCC(=O)O)c1O [Example 28, 4-[4-Cyano-3-hydroxy-6-(3-trifluoromethyl-phenyl)-pyridin-2-yl]-4-oxo-butyric acid]
[1]
  pIC50: 6.70
[2]
  pIC50: < 4.40

## N#Cc1cc(Cc2cccc(C(F)(F)F)c2)nc(C(=O)CCC(=O)O)c1O [Example 29, 4-[4-Cyano-3-hydroxy-6-(3-trifluoromethyl-benzyl)-pyridin-2-yl]-4-oxo-butyric acid]
[1]
  pIC50: 6.34
[2]
  pIC50: < 4.40

## N#Cc1cc(Cc2c(F)cccc2Cl)nc(C(=O)CCC(=O)O)c1O [Example 30, 4-[6-(2-Chloro-6-fluoro-benzyl)-4-cyano-3-hydroxy-pyridin-2-yl]-4-oxo-butyric acid]
[1]
  pIC50: 6.60
[2]
  pIC50: 4.77
